Test results: US12435061B2 (priority 2020, dated 2025)
Values after ≈ are worked out from the molar mass of the structure shown. Values joined by “and” are separate entries in the source; they are usually repeats but may differ in a detail not shown here. Identical values can stand only once.

How the values were obtained:
hTRPV3 [1] = target: T1, hTRPV3 (Homo sapiens (Human), UniProt Q8NET8); assay: FLIPR Assay (calcium flux, HEK293 cells stably expressing TRPV3); format: cell-based
Method: In Tables 3 and 4, Phase 1 refers to Phase 1 current for human (h) TRPV3 or rat (r) TRPV3, and Phase 2 refers to Phase 2 current for human (h) TRPV3 or rat (r) TRPV3. The hTRPV3 and rTRPV3 assays were performed as described herein. hERG refers to the inhibition the human ERG (hERG) channel. NaV1.5, refers to the pore forming aL-subunit of the voltage-dependent cardiac Na(+) channel and is an integral membrane protein involved in the initiation and conduction of action potentials. hTRPV3 HAMA IC50 refers to the IC50 of TRPV3 cells stably expressed in TRex-293 cells. Solubility Ringer refers to the compounds' solubility in Ringer's solution. LM T1/2 refers to liver microsome half-lives in either rat or human liver microsomes. FLIPR IC50 refers to the IC50 of the test compounds against recombinant hTRPV3 cells.
The cells were treated with IBSS and 20 mM HEPES adjusted to pH 7.4 in the presence of the fluorescent calcium indicator e.g. Fluo-4AM (5 uM) and the plates were incubated at 37° C. and […] for approximately 1 hour and cooled to room temperature. […] Relative Fluorescence Units (RFU) were measured for each response for signal maximum minus minimum during approximately 90 seconds after addition.

[2] = Aqueous solubility assay in Normal Ringer Solution; details: Normal Ringer Solution; for Solubility Ringer (nM): room temperature; for solubility at 40 min: saline or isotonic, kinetic from dmso stock
Method: Following vortex and incubation for a sufficient time (e.g. 40 minutes at room temperature), solutions were filtered, quenched with acetonitrile, and analyzed by Liquid Chromotography. Solubility Limits were determined by comparison to a standard curve.

[3] = Metabolic Stability assay, rat liver microsomes; format: in vitro ADME; details: for half-life at 1 μM: read-out: LM T1/2 (min) (rat)
In short: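 Reactions in human or rat liver microsomes at 37 °C were started with an NADPH-regenerating system, using 1 μM compound initially. Samples were taken at 0, 7, 15, 30 and 60 min, quenched in ice-cold acetonitrile/MeOH/H2O, and quantified by HPLC/MS/MS.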

hTRPV3 [4] = target: T1, hTRPV3; assay: hTRPV3 HAMA IC50 assay (Hamamatsu FDSS6000 calcium flux, TRex-293 cells)
Method: IC50s were calculated using CBIS from ChemInnovation (San Diego).

hTRPV3 [5] = target: T1, hTRPV3; assay: Whole-cell patch clamp, hTRPV3 Phase 1 / Phase 2 currents; format: cell-based
In short: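 Currents are activated by 20 μM 2-APB or by perfusate at 28 °C or warmer, in Ringer's solution, and quantified at ±80 mV.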

[6] = hTRPV3 HAMA IC50 (nM) (5 min), 5 min
[7] = hTRPV3 HAMA IC50 (nM) (30 min), 30 min
[8] = Phase 1 current, inward, whole-cell patch clamp, read-out: hTRPV3 Patch P1 Inwd
[9] = Phase 1 current, read-out: hTRPV3 (nM) (Phase 1)
[10] = Phase 2 current, inward, whole-cell patch clamp, read-out: hTRPV3 Patch P2 Inwd
[11] = Phase 2 current, read-out: hTRPV3 (nM) (Phase 2)

T1 sequence (Q8NET8 whole entry): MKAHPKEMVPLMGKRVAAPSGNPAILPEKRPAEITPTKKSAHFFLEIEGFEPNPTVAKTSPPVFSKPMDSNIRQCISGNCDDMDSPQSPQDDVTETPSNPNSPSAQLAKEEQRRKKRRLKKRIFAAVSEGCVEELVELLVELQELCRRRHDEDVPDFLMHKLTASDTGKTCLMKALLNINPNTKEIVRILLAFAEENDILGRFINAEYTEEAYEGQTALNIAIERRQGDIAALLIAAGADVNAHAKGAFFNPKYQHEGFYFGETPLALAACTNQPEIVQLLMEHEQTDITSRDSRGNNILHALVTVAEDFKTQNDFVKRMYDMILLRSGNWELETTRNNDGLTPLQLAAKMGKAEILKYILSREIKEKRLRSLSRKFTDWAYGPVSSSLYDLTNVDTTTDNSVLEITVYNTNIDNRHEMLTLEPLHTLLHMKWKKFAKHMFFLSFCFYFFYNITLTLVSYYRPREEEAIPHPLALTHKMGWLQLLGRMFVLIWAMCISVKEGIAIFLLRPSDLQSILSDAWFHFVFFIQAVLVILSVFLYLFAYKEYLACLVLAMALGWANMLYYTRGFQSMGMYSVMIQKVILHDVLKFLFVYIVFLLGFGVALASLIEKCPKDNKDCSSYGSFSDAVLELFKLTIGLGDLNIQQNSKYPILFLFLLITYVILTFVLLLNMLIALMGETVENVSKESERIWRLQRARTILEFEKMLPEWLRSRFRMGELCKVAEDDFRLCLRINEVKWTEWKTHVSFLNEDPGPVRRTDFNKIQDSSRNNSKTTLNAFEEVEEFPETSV

Molecule | IC50 (hTRPV3 [1]; read-out: FLIPR IC50) [µM] | half-life at 1 μM [3] [min] | IC50 (hTRPV3 [5]; [8]) [nM] | IC50 (hTRPV3 [5]; [9]) [nM] | hTRPV3 HAMA IC50 (nM) (5 min) (hTRPV3 [4]; 5 min) | solubility at 40 min [2] [µM] | also measured
Cc1ocnc1C(=O)N1CCC(c2ccc(-c3ccccc3C3CC3)cc2CO)C1 (stereo not shown) [Compound 2.148] | 2.93 |  |  |  |  |  | 
O=C(c1ncccc1O)N1CCC(c2ccc(-c3ccccc3C3CC3)cc2CO)C1 (stereo not shown) [Compound 2-139] | 7.68 |  |  |  |  |  | 
Cc1nnc(C(=O)N2CCC(c3ccc(-c4ccccc4C4CC4)cc3CO)C2)cc1O (stereo not shown) [Compound 2-142] | > 10 |  |  |  |  |  | 
O=C(c1ccc(CO)cn1)N1CCC(c2ccc(-c3ccccc3C3CC3)cc2CO)C1 (stereo not shown) [Compound 2-134] | 9.5 |  |  |  |  |  | 
O=C(c1cncc(O)n1)N1CCC(c2ccc(-c3ccccc3C3CC3)cc2CO)C1 (stereo not shown) [Compound 2-131] |  |  |  |  |  |  | IC50 (hTRPV3 [1]; FLIPR IC50 (uM)): > 10 µM
O=C(c1cc2n(n1)CCC2)N1CCC(c2ccc(-c3ccccc3C3CC3)cc2CO)C1 (stereo not shown) [Compound 2-162] | 5.19 |  |  |  |  |  | 
O=C(c1cc(CO)ccn1)N1CCC(c2ccc(-c3ccccc3C3CC3)cc2CO)C1 (stereo not shown) [Compound 2.154] | 4.21 |  |  |  |  |  | 
COc1ccnc(C(=O)N2CCC(c3ccc(-c4ccccc4C4CC4)cc3CO)C2)c1 (stereo not shown) [Compound 2-141] | 4.49 |  |  |  |  |  | 
Cc1nnc(C(=O)N2CCC(c3ccc(-c4ccccc4C4CC4)cc3CO)C2)o1 (stereo not shown) [Compound 2-129] | > 10 |  |  |  |  |  | 
Cc1ccc(C(=O)N2CCC(c3ccc(-c4ccccc4C4CC4)cc3CO)C2)nc1O (stereo not shown) [Compound 2-140] | 5.57 |  |  |  |  |  | 
Cc1ccccc1Oc1ccc(N2CC[C@H](Oc3ncccc3Cl)C2)c(CCO)c1 [Compound 1-235, (S)-2-(2-(3-(3-chloropyridin-2-yloxy)pyrrolidin-1-yl)-5-(o-tolyloxy)phenyl)ethanol] |  | 21.9 | 10 to 100 | 19.9 |  |  | Solubility Ringer (nM) [2]: BLQ; IC50 (hTRPV3 [4]; [6]): > 20000 nM; IC50 (hTRPV3 [4]; [7]): 6600 nM
O=C(c1csc(CO)n1)N1CCC(c2ccc(-c3ccccc3C3CC3)cc2CO)C1 (stereo not shown) [Compound 2-160] | > 10 |  |  |  |  |  | 
(S)-(2′-chloro-4-(3-(5-(trifluoromethyl)pyridin-2-yloxy)pyrrolidin-1-yl)biphenyl-3-yl)methanol [Compound 1-132] |  |  | 10 to 100 | 32 | no fit (5 min) |  | Solubility Ringer (nM) [2]: BLQ; LM T1/2 (min) (rat) ([3]; 1 μM): 54.1 (rat) min
CCc1ccccc1Oc1ccc(CO)c(N2CC[C@H](Oc3ncccc3Cl)C2)c1 [Compound 1-233, (S)-(2-(3-(3-chloropyridin-2-yloxy)pyrrolidin-1-yl)-4-(2-ethylphenoxy)phenyl)methanol] |  | 10.4 | 10 to 100 | ~21.6 | no fit |  | Solubility Ringer (nM) [2]: BLQ; IC50 (hTRPV3 [4]; [7]): > 20000 nM
Cc1ccccc1Oc1ccc(CO)c(N2CC[C@H](Oc3ncccc3Cl)C2)c1 [Compound 1-241, (S)-(2-(3-(3-chloropyridin-2-yloxy)pyrrolidin-1-yl)-4-(o-tolyloxy)phenyl)methanol] |  | 6.19 | 10 to 100 | 18.6 | no fit (5 min) no fit (30 min) | ~0.37 (≈ 0.152 µg/mL) | hTRPV3 HAMA IC50 (nM) (30 min) (hTRPV3 [4]; 30 min): no fit (5 min) no fit (30 min)
NC(=O)c1cc(Cl)ccc1N1CC[C@H](Oc2ccc(C(F)(F)F)cn2)C1 [Compound 1-31, (S)-5-chloro-2-(3-(5-(trifluoromethyl)pyridin-2-yloxy)pyrrolidin-1-yl)benzamide] |  | 34.3 | 100 to 1000 | ~883 | no fit (5 min) | > 16.8 | IC50 (hTRPV3 [5]; [10]): 100 to 1000 nM; IC50 (hTRPV3 [5]; [11]): 546 nM
Cc1ccccc1Oc1ccc(N2CC[C@H](Oc3ncccc3Cl)C2)c(CO)c1 [Compound 1-173, (S)-(2-(3-(3-chloropyridin-2-yloxy)pyrrolidin-1-yl)-5-(o-tolyloxy)phenyl)methanol] |  | 27.9 | 10 to 100 | ~29 |  |  | Solubility Ringer (nM) [2]: BLQ; IC50 (hTRPV3 [4]; [6]): > 20000 nM and 12000 nM; IC50 (hTRPV3 [4]; [7]): 1900 nM; IC50 (hTRPV3 [5]; [10]): 10 to 100 nM; IC50 (hTRPV3 [5]; [11]): 34.7 nM
NC(=O)c1cc(C(O)c2ccccc2)ccc1N1CC[C@H](Oc2ccc(C(F)(F)F)cn2)C1 (stereo partly drawn) [Compound 1-146, 5-(hydroxy(phenyl)methyl)-2-((S)-3-(5-(trifluoromethyl)pyridin-2-yloxy)pyrrolidin-1-yl)benzamide] |  | 45.8 | 100 to 1000 | 686 |  | > 13.3 | IC50 (hTRPV3 [4]; [6]): 11800 nM
OCc1cc(-c2ccccc2)ccc1N1CC[C@H](Oc2ccc(C(F)(F)F)cn2)C1 [Compound 1-115, (S)-(4-(3-(5-(trifluoromethyl)pyridin-2-yloxy)pyrrolidin-1-yl)biphenyl-3-yl)methanol] |  | 45.8 | 10 to 100 | 74.2 |  | 0.37 (≈ 0.153 µg/mL) | IC50 (hTRPV3 [4]; [6]): > 20000 nM and 5860 nM; IC50 (hTRPV3 [5]; [10]): 10 to 100 nM; IC50 (hTRPV3 [5]; [11]): 59 nM
OCCCc1cc(-c2ccccc2)ccc1N1CC[C@H](Oc2ccc(C(F)(F)F)cn2)C1 [Compound 1-138, (S)-3-(4-(3-(5-(trifluoromethyl)pyridin-2-yloxy)pyrrolidin-1-yl)biphenyl-3-yl)propan-1-ol] |  | 62.4 | 100 to 1000 | 275 | no fit (5 min) |  | Solubility Ringer (nM) [2]: BLQ
CC(O)c1cc(-c2ccccc2)ccc1N1CC[C@H](Oc2ccc(C(F)(F)F)cn2)C1 (stereo partly drawn) [Compound 1-121, 1-(4-((S)-3-(5-(trifluoromethyl)pyridin-2-yloxy)pyrrolidin-1-yl)biphenyl-3-yl)ethanol] |  | 33.3 | 10 to 100 | 102 | no fit (5 min) |  | Solubility Ringer (nM) [2]: BLQ
CCc1ccccc1-c1ccc(CO)c(N2CC[C@H](Oc3ncccc3Cl)C2)c1 [Compound 1-229, (S)-(3-(3-(3-chloropyridin-2-yloxy)pyrrolidin-1-yl)-2′-ethylbiphenyl-4-yl)methanol] |  | 4.46 | 10 to 100 | 69.2 | no fit (5 min) no fit (30 min) | 0.16 (≈ 0.0654 µg/mL) | hTRPV3 HAMA IC50 (nM) (30 min) (hTRPV3 [4]; 30 min): no fit (5 min) no fit (30 min)
COc1ccccc1Oc1ccc(N2CC[C@H](Oc3ncccc3Cl)C2)c(CO)c1 [Compound 1-221, (S)-(2-(3-(3-chloropyridin-2-yloxy)pyrrolidin-1-yl)-5-(2-methoxyphenoxy)phenyl)methanol] |  | 12.9 |  |  | no fit | ~2.9 (≈ 1.24 µg/mL) | IC50 (hTRPV3 [4]; [7]): 19400 nM; IC50 (hTRPV3 [5]; hTRPV3 Patch P1 Inwd (nM)): 100 to 1000 nM; IC50 (hTRPV3 [5]; read-out: hTRPV3 (nM) (Phase 1)): 159 nM
NC(=O)c1cc(-c2ccccc2)ccc1N1CC[C@H](Oc2ccc(C(F)(F)F)cn2)C1 [Compound 1-32, (S)-4-(3-(5-(trifluoromethyl)pyridin-2-yloxy)pyrrolidin-1-yl)biphenyl-3-carboxamide] |  | 44.3 | 100 to 1000 | 285 | no fit (5 min) |  | Solubility Ringer (nM) [2]: BLQ; IC50 (hTRPV3 [5]; [10]): 100 to 1000 nM; IC50 (hTRPV3 [5]; [11]): 273 nM
OCCOc1cc(-c2ccccc2)ccc1N1CC[C@H](Oc2ccc(C(F)(F)F)cn2)C1 [Compound 1-135, (S)-2-(4-(3-(5-(trifluoromethyl)pyridin-2-yloxy)pyrrolidin-1-yl)biphenyl-3-yloxy)ethanol] |  | 69.7 | 100 to 1000 | 765 | no fit (5 min) | 0.19 (≈ 0.0844 µg/mL) | 
OCc1ccc(Oc2ccccc2Cl)cc1N1CC[C@H](Oc2ncccc2Cl)C1 [Compound 1-232, (S)-(4-(2-chlorophenoxy)-2-(3-(3-chloropyridin-2-yloxy)pyrrolidin-1-yl)phenyl)methanol] |  | 5.87 | 10 to 100 | ~72.5 | no fit (5 min) no fit (30 min) | 0.25 (≈ 0.108 µg/mL) | hTRPV3 HAMA IC50 (nM) (30 min) (hTRPV3 [4]; 30 min): no fit (5 min) no fit (30 min)
NC(=O)c1cc(C(O)c2ccccc2)ccc1N1CC[C@H](Oc2ncccc2Cl)C1 (stereo partly drawn) [Compound 1-137, 2-((S)-3-(3-chloropyridin-2-yloxy)pyrrolidin-1-yl)-5-(hydroxy(phenyl)methyl)benzamide] |  | 8.72 | > 1000 | 2980 | no fit (5 min) | > 17.7 | 
